Laboratory results from patent US9120804B2, “8-substituted 2-amino-[1,2,4] triazolo [1, 5-A] pyrazines as Syk tryrosine kinase inhibitors and GCN2 serin kinase inhibitors” (Merck Patent GmbH, priority 2012, dated 2015).

Biological target: T1, SYK (Homo sapiens, UniProt P43405)
T1 construct: 2.5 nM SYK, 400 nM Biotin-Aha-Aha-KEDPDYEWPSAKK
Test: SYK flash plate assay (enzyme assay)
Type: biochemical
In short: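 Radiometric Flashplate format: biotinylated peptide substrate (400 nM) and 33P-labelled ATP (10 μM) react with 2.5 nM enzyme for 1 hour at 30 °C in Hepes buffer, pH 7.5. After EDTA quench and washing, counts are taken; staurosporine defines non-specific signal, and IC50 values are derived.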

**Q.** `CC1(C)C(=O)Nc2cc(Nc3nc4c(N5CC[C@]6(CNC(=O)C6)C5)nccn4n3)ccc21` [E52, 3,3-dimethyl-6-[8-((S)-8-oxo-2,7-diaza-spiro[4.4]non-2-yl)-[1,2,4]triazolo[1,5-a]pyrazin-2-ylamino]-1,3-dihydro-indol-2-one] was tested. Which IC50 did it give?
**A.** The IC50 was 100 to 300 nM.

**Q.** For `CC1(C)CCNc2cc(Nc3nc4c(N5CCC6(CC5)CNC(=O)O6)nccn4n3)ccc21` [E53, 8-[2-(4,4-dimethyl-1,2,3,4-tetrahydro-quinolin-7-ylamino)-[1,2,4]triazolo[1,5-a]pyrazin-8-yl]-1-oxa-3,8-diaza-spiro[4.5]decan-2-one], which IC50 is on record?
**A.** Its IC50 is less than 100 nM.

**Q.** For `CC1(C)CCCc2cc(Nc3nc4c(N5CCC6(CC5)CNC(=O)O6)nccn4n3)ccc21` [E54, 8-[2-(5,5-dimethyl-5,6,7,8-tetrahydro-naphthalen-2-ylamino)-[1,2,4]triazolo[1,5-a]pyrazin-8-yl]-1-oxa-3,8-diaza-spiro[4.5]decan-2-one], which IC50 is on record?
**A.** The IC50 was less than 100 nM.

**Q.** `CC1(C)CCOc2cc(Nc3nc4c(N5CCC6(CC5)CNC(=O)O6)nccn4n3)ccc21` [E55, 8-[2-(4,4-dimethyl-chroman-7-ylamino)-[1,2,4]triazolo[1,5-a]pyrazin-8-yl]-1-oxa-3,8-diaza-spiro[4.5]decan-2-one] was tested. Which IC50 did it give?
**A.** Its IC50 is less than 100 nM.

**Q.** With `CC1(C)C(=O)Nc2cc(Nc3nc4c(N5CCc6nc(N)ncc6C5)nccn4n3)ccc21` [E56, 6-[8-(2-amino-7,8-dihydro-5H-pyrido[4,3-d]pyrimidin-6-yl)-[1,2,4]triazolo[1,5-a]pyrazin-2-ylamino]-3,3-dimethyl-1,3-dihydro-indol-2-one] as the compound, how does the IC50 read?
**A.** The IC50 was less than 100 nM.

**Q.** With `CC1(C)C(=O)Nc2cc(Nc3nc4c(N5CCCCCC5)nccn4n3)ccc21` [E57, 6-(8-azepan-1-yl-[1,2,4]triazolo[1,5-a]pyrazin-2-ylamino)-3,3-dimethyl-1,3-dihydro-indol-2-one] as the compound, how does the IC50 read?
**A.** Its IC50 is less than 100 nM.

**Q.** `CC1=NOCC2(CCN(c3nccn4nc(Nc5ccc6c(c5)NC(=O)C6(C)C)nc34)CC2)C1` [E58, 3,3-dimethyl-6-[8-(4-methyl-2-oxa-3,9-diaza-spiro[5.5]undec-3-en-9-yl)-[1,2,4]triazolo[1,5-a]pyrazin-2-ylamino]-1,3-dihydro-indol-2-one] was tested. Which IC50 did it give?
**A.** Its IC50 is 100 to 300 nM.

**Q.** For `CC1(C)C(=O)Nc2cc(Nc3nc4c(N5CCC(c6ncc(C(F)(F)F)[nH]6)CC5)nccn4n3)ccc21` [E59], which IC50 is on record?
**A.** The IC50 was less than 100 nM.

**Q.** With `CC1(C)C(=O)Nc2cc(Nc3nc4c(Nc5n[nH]c(C(F)(F)F)n5)nccn4n3)ccc21` [E60, 3,3-dimethyl-6-[8-(5-trifluoromethyl-1H-[1,2,4]triazol-3-ylamino)-[1,2,4]triazolo[1,5-a]pyrazin-2-ylamino]-1,3-dihydro-indol-2-one] as the compound, how does the IC50 read?
**A.** Its IC50 is 300 to 3000 nM.

**Q.** How did the IC50 turn out when `COC1=CC2C=CN=C2C=C1Nc1nc2c(N3CCC4(CC3)CNC(=O)O4)nccn2n1` (stereo not shown) [E61, 8-[2-(5-methoxy-3aH-indol-6-ylamino)-[1,2,4]triazolo[1,5-a]pyrazin-8-yl]-1-oxa-3,8-diaza-spiro[4.5]decan-2-one] was run?
**A.** The IC50 was 3000 to 50000 nM.

**Q.** How did the IC50 turn out when `CC1(C)C(=O)Nc2cc(Nc3nc4c(N5C[C@@H](O)C[C@@H]5c5cccc(F)c5)nccn4n3)ccc21` [E62, 6-{8-[(2R,4S)-2-(3-fluoro-phenyl)-4-hydroxy-pyrrolidin-1-yl]-[1,2,4]triazolo[1,5-a]pyrazin-2-ylamino}-3,3-dimethyl-1,3-dihydro-indol-2-one] was run?
**A.** Its IC50 is 300 to 3000 nM.

**Q.** `CC1(C)C(=O)Nc2cc(Nc3nc4c(N5CCC6(CC5)CNC(=O)C6)nccn4n3)ccc21` [E63, 8-[2-(3,3-dimethyl-2-oxo-2,3-dihydro-1H-indol-6-ylamino)-[1,2,4]triazolo[1,5-a]pyrazin-8-yl]-2,8-diaza-spiro[4.5]decan-3-one] was tested. Which IC50 did it give?
**A.** Its IC50 is less than 100 nM.

**Q.** Which IC50 does the source give for `CC1(C)C(=O)Nc2cc(Nc3nc4c(N5C[C@H](O)C[C@@H]5c5cccc(F)c5)nccn4n3)ccc21` [E64, 6-{8-[(2R,4R)-2-(3-fluoro-phenyl)-4-hydroxy-pyrrolidin-1-yl]-[1,2,4]triazolo[1,5-a]pyrazin-2-ylamino}-3,3-dimethyl-1,3-dihydro-indol-2-one] here?
**A.** The IC50 was 300 to 3000 nM.
